Results reported in PubChem BioAssay (NCI).
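Grown in 96-well plates, cells were treated for 48 hours with each compound at five concentrations. Insufficient inhibition: endpoint recorded as highest concentration tested. At the GI50, growth is halved. The concentration for full growth arrest is given as TGI.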

Experiments:
Test in all cases: NCI tumour cell line growth inhibition, 48 h
NCI-H460 lung = system: NCI-H460 lung
SF-295 CNS = system: SF-295 CNS
NCI-H226 lung = system: NCI-H226 lung
EKVX NSCLC = system: EKVX NSCLC
HCC-2998 colon = system: HCC-2998 colon
UACC-257 melanoma = system: UACC-257 melanoma
U251 CNS = system: U251 CNS
NCI-H522 lung = system: NCI-H522 lung
HCT-116 colon = system: HCT-116 colon
PC-3 prostate = system: PC-3 prostate

| Compound | TGI (NCI-H460 lung) [µM] | TGI (SF-295 CNS) [µM] | TGI (NCI-H226 lung) [µM] | TGI (EKVX NSCLC) [µM] | TGI (HCC-2998 colon) [µM] | TGI (UACC-257 melanoma) [µM] | TGI (U251 CNS) [µM] | TGI (NCI-H522 lung) [µM] | TGI (HCT-116 colon) [µM] | GI50 (NCI-H460 lung) [µM] | GI50 (NCI-H226 lung) [µM] | GI50 (EKVX NSCLC) [µM] | GI50 (UACC-257 melanoma) [µM] | GI50 (U251 CNS) [µM] | GI50 (PC-3 prostate) [µM] | TGI (PC-3 prostate) [µM] | GI50 (HCT-116 colon) [µM] | GI50 (NCI-H522 lung) [µM] |
| --- | --- | --- | --- | --- | --- | --- | --- | --- | --- | --- | --- | --- | --- | --- | --- | --- | --- | --- |
| Cc1cc(NCCCCCCCCNc2cc(C)nc3cc(N)ccc23)c2ccc(N)cc2n1 | 49.5 | 42 | 93.3 | 61 | 38.8 | 35.5 | 24.3 | 30.8 | – | – | – | – | – | – | – | – | – | – |
| O=C(/C=C/c1cc(Cl)cc(Cl)c1O)c1cccc(O)c1 | > 100 | 28.5 | 30.6 | > 100 | > 100 | > 100 | 80.4 | > 100 | > 100 | – | – | – | – | – | – | – | – | – |
| CCCCCN(CCCCC)C(=O)[C@@H](CCC(=O)O)NC(=O)c1cc2ccccc2[nH]1 | > 100 | > 100 | > 100 | > 100 | > 100 | > 100 | 78.1 | 39.7 | 34.2 | – | – | – | – | – | – | – | – | – |
| Cc1c(Cl)cccc1NC(=O)C(=O)C(C(=O)c1ccccc1-c1ccccc1)C1OC(=O)c2ccccc21 (stereo unspecified) | 76.3 | 45 | 18.1 | 59 | 31.2 | 46.8 | 29.2 | 26.4 | 25 | – | – | – | – | – | – | – | – | – |
| COC(=O)C1CCc2c1c(=O)n1c([nH]c3ccccc31)c2C#N (stereo unspecified) | > 100 | > 100 | > 100 | > 100 | > 100 | > 100 | > 100 | > 100 | > 100 | – | – | – | – | – | – | – | – | – |
| O=C(CC(Cl)=C(Cl)Cl)Nc1ccccc1 | > 100 | – | > 100 | > 100 | – | > 100 | > 100 | > 100 | > 100 | > 100 | > 100 | > 100 | > 100 | > 100 | > 100 | > 100 | > 100 | > 100 |
| COC(=O)CCC(NC(=S)N/N=C(\C)c1cnc2ccccc2n1)C(=O)OC (stereo unspecified) | > 100 | > 100 | > 100 | > 100 | > 100 | > 100 | > 100 | 38.2 | 38.6 | – | – | – | – | – | – | – | – | – |
| COc1ccc(NC(=O)C(=O)c2c(O)c3ccc(O)cc3oc2=O)c([N+](=O)[O-])c1 | > 100 | > 100 | > 100 | > 100 | > 100 | > 100 | – | > 100 | > 100 | – | – | – | – | – | – | – | – | – |
| CCC(C)CCOC(=O)c1ccc(N=Cc2ccc(C=Nc3ccc(C(=O)OCCC(C)CC)cc3)cc2)cc1 (stereo unspecified) | > 100 | > 100 | > 100 | > 100 | > 100 | > 100 | > 100 | > 100 | > 100 | – | – | – | – | – | – | – | – | – |
